Source: patent publication US20200055839A1 (priority 2017, published 2020)

Test system: NL-RLuc virus
Assay: Inhibition of HIV replication (NL-RLuc virus, luciferase readout in MT-2 cells)
Format: cell-based
Details: Human immunodeficiency virus 1, MT2, 120 h, MT-2 cells infected with NL-RLuc virus, 5 days of incubation, 10% FBS, at least 2 experiments
Excerpt: Inhibition of HIV Replication:
A recombinant NL-RLuc proviral clone was constructed in which a section of the nef gene form NL4-3 was replaced with the Renilla Luciferase gene. This virus is fully infectious and can undergo multiple cycles of replication in cell culture. In addition, the luciferous reporter provides a simple and easy method for quantitating the extent of virus growth and consequently, the antiviral activity of test compounds. The plasmid pNLRLuc contains the proviral NL-Rluc DNA cloned into pUC18 at the PvuII site. The NL-RLuc virus was prepared by transfection of 293T cells with the plasmid pNLRLuc. Transfections were performed using the LipofectAMINE PLUS kit form Invitrogen (Carlsbad, Calif.) according to the manufacturer and the virus generated was titered in MT-2 cells. For susceptibility analyses, the titrated virus was used to infect MT-2 cells in the presence of compound, and after 5 days of incubation, cells were processed and quantitated for virus growth by the amount of expressed luciferase. Assay media was RPMI 1640 supplemented with 10% heat inactivated fetal bovine serum (FBS), 100 units/ml penicillin G/100 units/ml streptomycin, 10 mM HEPES buffer pH 7.55 and 2 mM L-glutamine. The results form at least 2 experiments were used to calculate the EC50 values. Luciferase was quantitated using the Dual Luciferase kit form Promega (Madison, Wis.). Susceptibility of viruses to compounds was determined by incubation in the presence of serial dilutions of the compound. The 50% effective concentration (EC50) was calculated by using the exponential form of the median effect equation where (Fa)=1/[1+(ED50/drug conc.)^m](Johnson V A, Byington R T. Infectivity Assay. In Techniques in HIV Research. ed. Aldovini A, Walker B D. 71-76. New York: Stockton Press. 1990).

Which EC50 does the source give for CCCCN(C)c1ccc(-c2cnc(C)c([C@H](OC(C)(C)C)C(=O)O)c2N2CCC(C)(C)CC2)nc1 [Example 442, (S)-2-(tert-Butoxy)-2-(5-(butyl(methyl)amino)-4′-(4,4-dimethylpiperidin-1-yl)-6′-methyl-[2, 3′-bipyridin]-5′-yl)acetic acid] here?
The EC50 was 5 nM.

Which EC50 does the source give for Cc1ccc(CCOc2ccc(-c3cnc(C)c([C@H](OC(C)(C)C)C(=O)O)c3N3CCC(C)(C)CC3)nc2)cc1 [Example 300, (2S)-2-(tert-butoxy)-2-[4′-(4,4-dimethylpiperidin-1-yl)-6′-methyl-5-[2-(4-methylphenyl)ethoxy]-[2,3′-bipyridine]-5′-yl]acetic acid] here?
The EC50 was 1 nM.

For CC1(C)CCN(c2c(-c3ccc(OCCc4ccc(F)cc4)c(F)c3)c(N)nc(Cl)c2[C@H](OC(C)(C)C)C(=O)O)CC1 [Example 209, (S)-2-(6-Amino-2-chloro-4-(4,4-dimethylpiperidin-1-yl)-5-(3-fluoro-4-(4-fluorophenethoxy)phenyl)pyridin-3-yl)-2-(tert-butoxy)acetic acid], which EC50 is on record?
Its EC50 is 4 nM.

For COc1c(F)cc(-c2c(CN(C)C)nc(C)c([C@H](OC(C)(C)C)C(=O)O)c2N2CCC(C)(C)CC2)cc1F [Example 197, (2S)-2-(tert-Butoxy)-2-[5-(3,5-difluoro-4-methoxyphenyl)-6-[(dimethylamino)methyl]-4-(4,4-dimethylpiperidin-1-yl)-2-methylpyridin-3-yl]acetic acid], which EC50 is on record?
Its EC50 is 11 nM.

How did the EC50 turn out when Cc1cc(F)ccc1CCOc1ccc(-c2cnc(C)c([C@H](OC(C)(C)C)C(=O)O)c2N2CCC(C)(C)CC2)nc1 [Example 286, (S)-2-(tert-Butoxy)-2-(4′-(4,4-dimethylpiperidin-1-yl)-5-(4-fluoro-2-methylphenethoxy)-6′-methyl-[2, 3′-bipyridin]-5′-yl)acetic acid] was run?
Its EC50 is 1 nM.

For Cc1nc(C#N)c([C@H](OC(C)(C)C)C(=O)O)c(N2CCC(C)(C)CC2)c1-c1ccc(OCCc2ccc(F)cc2)cc1 [Example 5, (S)-2-(tert-Butoxy)-2-(2-cyano-4-(4,4-dimethylpiperidin-1-yl)-5-(4-(4-fluorophenethoxy)phenyl)-6-methylpyridin-3-yl)acetic acid], which EC50 is on record?
The EC50 was 7 nM.

Which EC50 does the source give for Cc1nc(CO)c(-c2ccc(F)c(F)c2)c(N2CCC(C)(C)CC2)c1[C@H](OC(C)(C)C)C(=O)O [Example 140, (2S)-2-(tert-Butoxy)-2-[5-(3,4-difluorophenyl)-4-(4,4-dimethylpiperidin-1-yl)-6-(hydroxymethyl)-2-methylpyridin-3-yl]acetic acid] here?
Its EC50 is 53 nM.

Cc1ncc(-c2cccc(F)c2Cl)c(N2CCC(C)(C)CC2)c1[C@H](OC(C)(C)C)C(=O)O [Example 165, (2S)-2-(tert-Butoxy)-2-[5-(2-chloro-3-fluorophenyl)-4-(4,4-dimethylpiperidin-1-yl)-2-methylpyridin-3-yl]acetic acid] was tested. Which EC50 did it give?
Its EC50 is 8 nM.

Cc1nc(N)c(-c2cc(F)c(OCCc3ccc(F)cc3)cc2F)c(N2CCC(C)(C)CC2)c1[C@H](OC(C)(C)C)C(=O)O [Example 68, (2S)-2-(6-Amino-5-(2,5-difluoro-4-(4-fluorophenethoxy)phenyl)-4-(4,4-dimethylpiperidin-1-yl)-2-methylpyridin-3-yl)-2-(tert-butoxy)acetic acid] was tested. Which EC50 did it give?
The EC50 was 2 nM.

Which EC50 does the source give for COc1ccc(COc2ccc(-c3cnc(C)c([C@H](OC(C)(C)C)C(=O)O)c3N3CCC(C)(C)CC3)nc2)cc1 [Example 339, (2S)-2-(tert-butoxy)-2-[4′-(4,4-dimethylpiperidin-1-yl)-5-[(4-methoxyphenyl)methoxy]-6′-methyl-[2,3′-bipyridine]-5′-yl]acetic acid] here?
Its EC50 is 2 nM.

With Cc1cn(-c2nc(C)c([C@H](OC(C)(C)C)C(=O)O)c(N3CCC(C)(C)CC3)c2-c2ccc(OCCc3ccc(F)cc3)cc2)c(C)n1 [Example 53, (S)-2-(tert-Butoxy)-2-(6-(2,4-dimethyl-1H-imidazol-1-yl)-4-(4,4-dimethylpiperidin-1-yl)-5-(4-(4-fluorophenethoxy)phenyl)-2-methylpyridin-3-yl)acetic acid] as the molecule, how does the EC50 read?
Its EC50 is 3 nM.

COc1cccc(-c2cnc(C)c([C@H](OC(C)(C)C)C(=O)O)c2N2CCC(C)(C)CC2)c1Cl [Example 161, (2S)-2-(tert-Butoxy)-2-[5-(2-chloro-3-methoxyphenyl)-4-(4,4-dimethylpiperidin-1-yl)-2-methylpyridin-3-yl]acetic acid] was tested. Which EC50 did it give?
Its EC50 is 9 nM.

For CC1(C)CCN(c2c(-c3ccc(OCCc4ccc(F)cc4)c(F)c3)cnc(Cl)c2[C@H](OC(C)(C)C)C(=O)O)CC1 [Example 214, (S)-2-(tert-Butoxy)-2-(2-chloro-4-(4,4-dimethylpiperidin-1-yl)-5-(3-fluoro-4-(4-fluorophenethoxy)phenyl)pyridin-3-yl)acetic acid], which EC50 is on record?
The EC50 was 9 nM.

With CCC(C)COc1ncc(-c2cnc(C)c([C@H](OC(C)(C)C)C(=O)O)c2N2CCC(C)(C)CC2)cc1F (stereo partly drawn) [Example 386, (2S)-2-(tert-butoxy)-2-[4-(4,4-dimethylpiperidin-1-yl)-5′-fluoro-6-methyl-6′-(2-methylbutoxy)-[3,3′-bipyridine]-5-yl]acetic acid] as the molecule, how does the EC50 read?
Its EC50 is 6 nM.

Which EC50 does the source give for Cc1ncc(-c2cnc(O[C@@H](C)C(C)C)c(F)c2)c(N2CCC(C)(C)CC2)c1[C@H](OC(C)(C)C)C(=O)O [Example 370, (2S)-2-(tert-butoxy)-2-[4-(4,4-dimethylpiperidin-1-yl)-5′-fluoro-6-methyl-6′-{[(2S)-3-methylbutan-2-yl]oxy}-[3,3′-bipyridine]-5-yl]acetic acid] here?
The EC50 was 1 nM.

CCCCOc1ccc(-c2cnc(C)c([C@H](OC(C)(C)C)C(=O)O)c2N2CCC(C)(C)CC2)cn1 [Example 426, (S)-2-tert-Butoxy-2-(6′-butoxy-4-(4,4-dimethylpiperidin-1-yl)-6-methyl-3, 3′-bipyridin-5-yl)acetic acid] was tested. Which EC50 did it give?
The EC50 was 0.3 nM.

How did the EC50 turn out when Cc1ncc(-c2ncc(OCCc3ccc(F)cc3)cn2)c(N2CCC(C)(C)CC2)c1[C@H](OC(C)(C)C)C(=O)O [Example 14, (S)-2-(tert-Butoxy)-2-(4-(4,4-dimethylpiperidin-1-yl)-5-(5-(4-fluorophenethoxy)pyrimidin-2-yl)-2-methylpyridin-3-yl)acetic acid] was run?
Its EC50 is 2 nM.

Which EC50 does the source give for CCOc1ccc(CCOc2ccc(-c3cnc(C)c([C@H](OC(C)(C)C)C(=O)O)c3N3CCC(C)(C)CC3)nc2)cc1 [Example 320, (2S)-2-(tert-butoxy)-2-[4′-(4,4-dimethylpiperidin-1-yl)-5-[2-(4-ethoxyphenyl)ethoxy]-6′-methyl-[2,3′-bipyridine]-5′-yl]acetic acid] here?
The EC50 was 2 nM.

Which EC50 does the source give for Cc1ncc(-c2ccc(OCCc3ccc(F)cc3)nn2)c(N2CCC(C)(C)CC2)c1[C@H](OC(C)(C)C)C(=O)O [Example 17, (S)-2-(tert-Butoxy)-2-(4-(4,4-dimethylpiperidin-1-yl)-5-(6-(4-fluorophenethoxy)pyridazin-3-yl)-2-methylpyridin-3-yl)acetic acid] here?
Its EC50 is 85 nM.

For Cc1ccccc1-c1cnc(C)c([C@H](OC(C)(C)C)C(=O)O)c1N1CCC(C)(C)CC1 [Example 137, (2S)-2-(tert-Butoxy)-2-[4-(4,4-dimethylpiperidin-1-yl)-2-methyl-5-(2-methylphenyl)pyridin-3-yl]acetic acid], which EC50 is on record?
Its EC50 is 53 nM.

With COc1ccc(-c2cnc(C)c([C@H](OC(C)(C)C)C(=O)O)c2N2CCC(C)(C)CC2)cc1 [Example 136, (2S)-2-(tert-Butoxy)-2-[4-(4,4-dimethylpiperidin-1-yl)-5-(4-methoxyphenyl)-2-methylpyridin-3-yl]acetic acid] as the molecule, how does the EC50 read?
Its EC50 is 2 nM.

Cc1ncc(-c2ccc(OCCc3ccc(F)cc3)nc2)c(N2CCC(C)(C)CC2)c1[C@H](OC(C)(C)C)C(=O)O [Example 254, (S)-2-(tert-Butoxy)-2-(4-(4,4-dimethylpiperidin-1-yl)-6′-(4-fluorophenethoxy)-6-methyl-[3,3′-bipyridin]-5-yl)acetic acid] was tested. Which EC50 did it give?
The EC50 was 0.6 nM.

How did the EC50 turn out when Cc1ncc(-c2cnc(OC[C@@H](C)c3ccccc3)c(F)c2)c(N2CCC(C)(C)CC2)c1[C@H](OC(C)(C)C)C(=O)O [Example 388, (2S)-2-(tert-butoxy)-2-[4-(4,4-dimethylpiperidin-1-yl)-5′-fluoro-6-methyl-6′-[(2S)-2-phenylpropoxy]-[3,3′-bipyridine]-5-yl]acetic acid] was run?
Its EC50 is 3 nM.

How did the EC50 turn out when Cc1ncc(-c2cnc(OCCc3cccc(Cl)c3)c(F)c2)c(N2CCC(C)(C)CC2)c1[C@H](OC(C)(C)C)C(=O)O [Example 371, (2S)-2-(tert-butoxy)-2-{6′-[2-(3-chlorophenyl)ethoxy]-4-(4,4-dimethylpiperidin-1-yl)-5′-fluoro-6-methyl-[3,3′-bipyridine]-5-yl}acetic acid] was run?
The EC50 was 1 nM.

With COc1c(F)cccc1-c1cnc(C)c([C@H](OC(C)(C)C)C(=O)O)c1N1CCC(C)(C)CC1 [Example 166, (2S)-2-(tert-Butoxy)-2-[4-(4,4-dimethylpiperidin-1-yl)-5-(3-fluoro-2-methoxyphenyl)-2-methylpyridin-3-yl]acetic acid] as the molecule, how does the EC50 read?
The EC50 was 11 nM.
